Assay results taken from US4861785A (priority 1985, dated 1989).
Counter-ions that a name gives are not always drawn.

test system: KCN-induced lethality; test: KCN Test in Rats (protection from KCN induced lethality); format: in vivo; details: Rattus norvegicus, sc; male Wistar rats, subcutaneous, one hour before KCN 5 mg/kg i.v.; survival after 2 minutes; read-out: ED50-values (protecting 50% of the tested animals against KCN-induced lethality)

In order of rising ED50:
1. CCN(c1nc2ccccc2s1)C1CCN(CC(O)COc2ccc(Cl)cc2)CC1 (stereo not shown) [Compound 357]  0.63 mg/kg
2. CN(c1nc2ccccc2o1)C1CCN(CCCCOc2ccc(Cl)cc2)CC1 [Compound 15]  0.63 mg/kg
3. CN(c1nc2ccccc2o1)C1CCN(CCCOc2cccc(F)c2)CC1 [Compound 195]  1.25 mg/kg
4. CN(c1nc2ccccc2s1)C1CCN(CCCCOc2ccc(F)cc2)CC1 [Compound 11]  1.25 mg/kg
5. Cc1cccc(OCCCN2CCC(N(C)c3nc4ccccc4o3)CC2)c1 [Compound 48]  1.25 mg/kg
6. CN(c1nc2ccccc2o1)C1CCN(CC(O)COc2ccc(F)cc2)CC1 (stereo not shown) [Compound 323]  1.25 mg/kg
7. CN(c1nc2ccccc2s1)C1CCN(CC(O)COc2ccc(F)cc2)CC1 (stereo not drawn) [Compound 320, 4-[(2-benzothiazolyl)methylamino]-α-[(4-fluorophenoxy)methyl]-1-piperidineethanol monohydrochloride]  1.8 mg/kg
8. COc1ccccc1OCCCCCN1CCC(N(C)c2nc3ccccc3s2)CC1 [Compound 50]  2.5 mg/kg
9. CN(c1nc2ccccc2s1)C1CCN(CCCCOc2ccc(Br)cc2)CC1 [Compound 42]  2.5 mg/kg
10. CN(c1nc2ccccc2s1)C1CCN(CCCCCOc2cccc(Cl)c2)CC1 [Compound 191]  2.5 mg/kg
11. C(=Cc1ccccc1)CN1CCC(Nc2nc3ccccc3o2)CC1 [Compound 107]  2.5 mg/kg
12. CN(c1nc2ccccc2s1)C1CCN(CC(O)CSc2ccc(F)cc2)CC1 (stereo not drawn) [Compound 442, 4-[(2-benzothiazolyl)methylamino]-α-[[(4-fluorophenyl)thio]methyl]-1-piperdineethanol (Z)-2-butenedioate(1:1)]  2.5 mg/kg
13. CN(c1nc2ccccc2s1)C1CCN(CCCOc2cccc(F)c2)CC1 [Compound 9]  2.5 mg/kg
14. CN(c1nc2ccccc2s1)C1CCN(CCCOc2cccc(F)c2)C1.O=C(O)C(=O)O (stereo not shown) [Compound 121, N-[1-[3-(3-fluorophenoxy)propyl]-3-pyrrolidinyl]-N-methyl-2-benzothiazolamine ethanedioate(1:1)]  2.5 mg/kg
15. Cc1cccc(OCCCN2CCC(N(C)c3nc4ccccc4s3)C2)c1.O=C(O)C(=O)O (stereo not shown) [Compound 120, N-methyl-N-[1-[3-(3-methylphenoxy)propyl]-3-pyrrolidinyl]-2-benzothiazolamine ethanedioate(1:1)]  2.5 mg/kg
16. CN(c1nc2ccccc2o1)C1CCN(CC(O)COc2ccc(Cl)cc2)CC1 (stereo not shown) [Compound 324]  2.5 mg/kg
17. CN(c1nc2ccccc2s1)C1CCN(CCCCOc2ccccc2)CC1 [Compound 10]  5 mg/kg
18. CN(c1nc2ccccc2s1)C1CCN(CCCCOc2ccc(F)cc2)C1 (stereo not shown) [Compound 118, N-[1-[4-(4-fluorophenoxy)butyl]-3-pyrrolidinyl]-N-methyl-2-benzothiazolamine dihydrochloride.monohydrate]  5 mg/kg
19. COc1ccc(OCCCCN2CCC(N(C)c3nc4ccccc4s3)CC2)cc1 [Compound 31]  5 mg/kg
20. CN(c1nc2ccccc2s1)C1CCN(CCCOc2ccc([N+](=O)[O-])cc2)CC1 [Compound 151]  5 mg/kg
21. CN(c1nc2ccccc2o1)C1CCN(CC(O)COc2ccccc2)CC1 (stereo not shown) [Compound 322]  5 mg/kg
22. CN(c1nc2ccccc2s1)C1CCN(CCCCCc2ccccc2)CC1 [Compound 108]  5 mg/kg
23. CN(c1nc2ccccc2o1)C1CCN(CCc2ccccn2)CC1 [Compound 452, N-methyl-N-[1-[2-(2-pyridinyl)ethyl]-4-piperidinyl]-2-benzoxazolamine]  5 mg/kg
24. CN(c1nc2ccccc2s1)C1CCN(CC=Cc2ccccc2)CC1 [Compound 133]  5 mg/kg
25. CN(c1nc2ccccc2o1)C1CCN(C2CCCCC2)CC1 [Compound 309]  5 mg/kg
26. CN(c1nc2ccccc2s1)C1CCN(CCCCOc2cccc(Cl)c2)CC1.O=C(O)/C=C\C(=O)O [Compound 1, N-[1-[4-(3-chlorophenoxy)butyl]-4-piperidinyl]-N-methyl-2-benzothiazolamine (Z)-2-butenedioate (1:1)]  5 mg/kg
27. CN(c1nc2ccccc2s1)C1CCN(CCCOc2ccc(F)cc2)CC1 [Compound 146]  5 mg/kg
28. CN(c1nc2ccccc2s1)C1CCN(C[C@@H](O)COc2ccc(F)cc2)CC1 [Compound 410, (+)-(R)-4-[(2-benzothiazolyl)methylamino]-α-[(4-fluorophenoxy)methyl]-1-piperidineethanol dihydrochloride]  5 mg/kg
29. CCCCN1CCC(N(C)c2nc3ccccc3o2)CC1 [Compound 103]  5 mg/kg
30. CN(c1nc2ccccc2s1)C1CCN(CCCCCOc2ccc(F)cc2)CC1 [Compound 32]  5 mg/kg
31. COc1ccc(OCCCN2CCC(N(C)c3nc4ccccc4s3)CC2)cc1 [Compound 24]  5 mg/kg
32. CN(c1nc2ccccc2s1)C1CCN(C[C@H](O)COc2ccc(F)cc2)CC1 [Compound 411, (-)-(S)-4-[(2-benzothiazolyl)methylamino]-α-[(4-fluorophenoxy)methyl]-1-piperidineethanol dihydrochloride]  5 mg/kg
33. CN(c1nc2ccccc2s1)C1CCN(CCCOc2ccc3ccccc3c2)CC1 [Compound 148]  5 mg/kg
34. CN(c1nc2ccccc2s1)C1CCN(CCCOc2ccccc2F)CC1 [Compound 18]  5 mg/kg
35. CN(c1nc2ccccc2o1)C1CCN(CC(O)C2COc3ccccc3O2)CC1 (single isomer, unassigned) [Compound 413, (A)-4-[(2-benzoxazolyl)methylamino]-α-(2,3-dihydro-1,4-benzodioxin-2-yl)-1-piperidineethanol]  5 mg/kg
36. CCN(c1nc2ccccc2s1)C1CCN(CCCOc2ccc(C)cc2)CC1 [Compound 123, N-ethyl-N-[1-[3-(4-methylphenoxy)propyl]-4-piperidinyl]-2-benzothiazolamine]  5 mg/kg
37. CN(c1nc2ccccc2s1)C1CCN(CC(O)CSc2ccc(Cl)cc2)CC1 (stereo not drawn) [Compound 443, 4-[(2-benzothiazolyl)methylamino]-α-[[(4-chlorophenyl)thio]methyl]-1-piperidineethanol (Z)-2-butenedioate(1:1)]  10 mg/kg
38. CN(c1nc2ccccc2s1)C1CCN(CC(O)CSc2ccccc2)CC1 (stereo not drawn) [Compound 440, 4-[(2-benzothiazolyl)methylamino]-α-[(phenylthio)methyl]-1-piperidineethanol (Z)-2-butenedioate(1:1)]  10 mg/kg
39. C[C@@H]1CN(CCCCOc2ccccc2)CC[C@@H]1N(C)c1nc2ccccc2s1 (relative stereo) [Compound 75]  10 mg/kg
40. CN(c1nc2ccccc2o1)C1CCN(CC(O)CSc2ccccc2)CC1 (stereo not drawn) [Compound 446, 4-[(2-benzoxazolyl)methylamino]-α-[(phenylthio)methyl]-1-piperidineethanol (E)-2-butenedioate(2:1)]  10 mg/kg
41. CN(c1nc2ccccc2s1)C1CCN(CC(O)C2COc3ccccc3O2)CC1 (single isomer, unassigned) [Compound 415, (A)-4-[(2-benzothiazolyl)methylamino]-α-(2,3-dihydro-1,4-benzodioxin-2-yl)-1-piperidineethanol]  10 mg/kg
42. CN(c1nc2ccccc2s1)C1CCN(CC(O)C2CCc3ccccc3O2)CC1 (stereo not drawn) [Compound 438, (A^-)-4-[(2-benzothiazolyl)methylamino]-α-(3,4-dihydro-2H-1-benzopyran-2-yl)-1-piperidineethanol]  10 mg/kg
43. CN(c1nc2ccccc2s1)C1CCN(CC(O)COc2ccc(F)cc2)C1 (stereo not drawn) [Compound 405, 3-[(2-benzothiazolyl)methylamino]-α-[(4-fluorophenoxy)methyl]-1-pyrrolidineethanol 4-methylbenzenesulfonate(1:2)]  10 mg/kg
